This is an account of results in PubChem BioAssay (NCI).

What all share (assay): NCI tumour cell line growth inhibition, 48 h
Experiment [1] deals with RXF-631 renal.
Experiment [2] concerns MDA-MB-231 breast.
For experiment [3], the system named is MDA-MB-435.
The test system of experiment [4] is HS 578T breast.
In experiment [5] the test system is BT-549 breast.
Experiment [6] concerns T-47D breast.
In experiment [7] the test system is DU-145 prostate.
The test system of experiment [8] is PC-3 prostate.
In experiment [9] the test system is MDA-N.
The test system of experiment [10] is P388 leukemia.
In experiment [11] the test system is P388/ADR leukemia.

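Values below derive from 48-hour exposures of cells grown in 96-well plates, with endpoints linearly interpolated between the two concentrations bracketing the appropriate inhibition level. TGI: concentration producing complete growth inhibition.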

`COC(=O)C(Cc1cc(OC)c(OC)c(OC)c1)(NC(=O)c1ccccc1)P(=O)(OC)OC` (stereo not drawn) came in with a TGI in experiment [1] greater than 100 µM.
Consider `Nc1[nH]nc2c1Cc1c(n(Cc3ccc(Cl)cc3)c3ccccc13)C(=O)N2`, for which the TGI in experiment [2] is 30.6 µM; in [3], 16.5 µM; in experiment [4], 40.2 µM; in [5] it was 36.6 µM; in [6], 28.9 µM; in [7], 24.4 µM. In addition, the TGI in experiment [8] was 23.5 µM.
In the case of `c1ccc2c(CCNC3=NCCO3)cccc2c1`, the TGI in experiment [9], in experiment [2], in experiment [3], in experiment [4], in experiment [6] and in experiment [7] was greater than 10 µM each time. The TGI in [8] is greater than 10 µM.
As for `CSc1nc(NC2OC(CO)C(O)C(O)C2O)c(N)c(=O)[nH]1` (stereo not drawn), the TGI in experiment [10] and in experiment [11] was greater than 100 µM in each case.
In turn, `O=[N+]([O-])c1cnccc1-n1nnc2ccccc21` gave a TGI in experiment [10] of 30.3 µM.
